Where two headings read alike, the source gives them in different places.
Tests used:
[1] = system: resistant P. falciparum variant K1; experiment: Potency against resistant P. falciparum variant K1 (EC50); assay type: cell-based; settings: Plasmodium falciparum
[2] = system: HepG2-A16-CD81EGFP cells; experiment: HepG2 cytotoxicity bioluminescence assay (CellTiter-Glo); assay type: cell-based, human; settings: for concentration below which no toxicity was seen: HepG2-A16-CD81EGFP, 48 h, CellTiter-Glo
Procedure: Compounds 66 and 177 were tested for viability of liver schizonts of the murine Plasmodium berghei species transformed with Luciferase by using the following assay adapted and modified from S. Swann et al. (2016) High-Throughput Luciferase-Based Assay for the Discovery of Therapeutics That Prevent Malaria. ACS Infectious Diseases 2: 4. 281-293 (2016), but with the removal of the infection methods. The CellTiter-Glo® ° (Promega Corp., Madison WI) is a method to determine the number of viable cells in culture based on quantitation of the ATP present, which signals the presence of metabolically active cells.
HepG2-A16-CD81EGFP cells were stably transformed to express a GFP-CD81 fusion protein (S. Yalaoui et al., Hepatocyte permissiveness to Plasmodium infection is conveyed by a short and structurally conserved region of the CD81 large extracellular domain. PLoS Pathog. 4, e1000010 (2008); O. Silvie et al, Hepatocyte CD81 is required for Plasmodium falciparum and Plasmodium yoelii sporozoite infectivity. Nat. Med. 9, 93 (2003)). The transformed HepG2-A16-CD81EGFP cells were cultured at 37° C. in 5% CO2 in DMEM (Invitrogen, Carlsbad, USA) supplemented with 10% FCS, 0.29 mg/ml glutamine, 100 units penicillin and 100 μg/ml streptomycin.
[…] HepG2-A16-CD81EGFP cells in 5 μl of medium (2×10^5 cells/ml, 5% FBS, 5× Pen/Strep/Glu) were seeded in 1536-well plates (Greiner BioOne white solid bottom custom GNF mold) 20-26 hours prior to the actual infection. 24 hours prior to infection, 50 nl of compound in DMSO (0.5% final DMSO concentration per well) was transferred with acoustic transfer machine (ATS) into the assay plates (10 μM-50 μM final concentration). Puromycin (25 μM) and 0.5% DMSO were used as positive and negative controls, respectively.
5 μl of the HepG2 screening media were dispensed into each well of the 1536 plate format using the BioTek MultiFlo FX Multi-Mode Cell Dispenser and a 5 μl BioTek Liquid Handling MicroFlo cassette. This step was to maintain equal concentrations of compounds with the Pb-Luc infected plates that were performed in parallel with this assay (P. berghei-Luciferase Liver Stage Bioluminescence Assay). After incubation at 37° C. for 48 hours, the cell viability was quantified by bioluminescence measurement. […] Puromycin and naive wells were used as controls on each plate. The compounds were screened in a 12 point serial dilution to determine their IC50 values.
Media was removed by spinning the inverted plates at 150 RCF for 1 minute. CellTiter-Glo® reagent (Promega Corp., Madison WI) was prepared following manufacturer instructions and diluted with DI H2O 1:1 (final solution is 50% CellTiterGlo® reagent in DI H2O). […] Immediately after addition of the CellTiter-Glo® reagent, the plates were read by the Envision Multilabel Reader (PerkinElmer).

[3] = Stability of the pyrrolinone to acid followed by H-1 NMR; assay type: physicochemical; settings: methanol-D4, deuterated acetic acid dropwise; reversed by sodium hydride
Procedure: Without wishing to be bound by any particular theory or mechanism of action, it can be contemplated that the unique aminal structure of the pyrrolinones imparts specific chemical behavior. Aminals are normally unstable functionalities that are prone to hydrolysis. To test the stability of the […], a solution of 177 in methanol-D4 was treated dropwise with deuterated acetic acid. The experiment was followed by H-1 NMR analysis by observing the reduction of the peaks at 6.12 ppm and 8.73 ppm and the appearance of a peak at 9.42. […] Basifying the solution with sodium hydride returns the mixture to pyrrolinone.

| Compound | EC50 ([1]; K1, read-out: K1 EC50) | EC50 ([1]; K1, read-out: K1 EC50 (μM)) | cell-based toxicity, in words [2] | concentration below which no toxicity was seen [2] | stability to acid, in words [3] |
| --- | --- | --- | --- | --- | --- |
| O=C(Nc1ccc(F)c(F)c1)c1c2c(nc3ccccc13)CCN(Cc1ccccc1)C2 [Compound 66, 2-Benzyl-N-(3,4-difluorophenyl)-1,2,3,4-tetrahydrobenzo[b][1,6]naphthyridine-10-carboxamide] | 0.0108 µM | 0.279 µM | acceptable levels of cell-based toxicity | ≥ 50 µM | – |
| O=C1c2c3c(nc4ccccc24)CCN(Cc2ccccc2)C3N1c1ccc(F)c(F)c1 (stereo not shown) [Compound 177, 3-Benzyl-2-(3,4-difluorophenyl)-2a,3,4,5-tetrahydrobenzo[b]pyrrolo[4,3,2-de][1,6]naphthyridin-1(2H)-one] | – | – | acceptable levels of cell-based toxicity | ≥ 12.5 µM | Acidification causes the compound to begin conversion into another substance |

Source: patent publication US12370183B2, “Compositions and methods for treating malaria” (Rutgers, The State University of New Jersey, priority 2020, dated 2025)
